In patent US12410124B2 (priority 2019, dated 2025):
Like-named read-outs stand apart in the source and are kept apart here.

Key:
substantia nigra pp38 = assay: Substantia nigra pp38 protein expression in MPTP Parkinson's disease model mouse (immunofluorescence); format: in vivo; details: percentage of mean intensity of blank control group, gavage 21 days after MPTP modeling
Method: (§1) Neurotoxins can be used to establish PD animal models. Currently, 1-methyl-4-phenyl-1,2,3,6-tetrahydropyridine (MPTP) is the sole synthetic toxin which is recognized to induce PD symptoms in human and non-human primates and in mice. Using MPTP subacute modeling method, C57BL/6J male mice were intraperitoneally injected with MPTP 30 mg/kg, once a day for 5 consecutive days. The experiment animals were divided into blank control group, MPTP model group, and compound treatment group. For the […] compound treatment group, the compound was administrated by gavage for 21 consecutive days after the completion of modeling; for the MPTP model group, the normal saline was administrated by gavage for 21 consecutive days after the completion of modeling; and for the blank control group, the normal saline was first intraperitoneally injected for 5 days, and then administrated by gavage for 21 days.
The p38 mitogen-activated protein kinase (p38 MAPK) is expressed in both neurons and glial cells, and is the intersection point of neuron-glial cell network information regulations. The activation of p38 signaling pathway is an important initiator of neuronal degeneration, which continuously induces the apoptosis of dopaminergic neurons in multiple ways. It has become a research hotspot for the treatment of PD. Studies have shown that the protective mechanism of CAPE against the death of primary cultured cerebellar granule neurons induced by glutamate lies in inhibiting the activation of p38 phosphorylation and in turn inhibiting the activation of the caspase 3 apoptotic pathway to prevent neuronal apoptosis. Therefore, the MPTP-induced PD mouse model can be used to investigate the inhibitory effect of the target compounds on the activation of p38 phosphorylation on the overall animal level.
(§2) Half of experiment mice in each group were taken to separate the midbrain after perfusion and fixation. The tissue was trimmed, and the substantia nigra-striatum area was taken to prepare paraffin sections. The double immunofluorescence staining for TH and phosphorylated p38 was performed to observe the coexpression of TH and phosphorylated p38, for the statistics of the change in the phosphorylated p38 protein expression. The experiment included blank control group, MPTP model group, positive control group (caffeic acid phenethyl ester, CAPE), prototype control group (styryl sulfone compounds 3B, 3C, 3D, and 3G, whose structures are shown as above), and target compound group.

HO-1 = assay: Midbrain HO-1 expression in MPTP Parkinson's disease model mouse (western blot); format: in vivo; details: for Expression (HO-1/GAPDH): midbrain, MPTP Parkinson's disease model mouse, western blot
Method: as §1
Oxidative stress is an important pathogenic mechanism of PD. Dopaminergic neurons are more sensitive to oxidative stress and are more susceptible to oxidative stress damage. Heme oxygenase (HO-1), a phase II enzyme, is also a well-known antioxidase. It plays an important protective role by catalyzing the conversion of free radicals into non-toxic products and increasing their water solubility to facilitate the elimination of free radicals, and maintain the redox balance in the body. It plays an important role in the process of protecting cells against oxidative stress damage. The activation of p38 protein phosphorylation has a negative regulatory effect on phase II enzymes. […] Using HO-1 as an indicator, the inhibitory effect of the target compounds on MPTP-induced oxidative stress damage in PD mice can be investigated.
HO-1 is expressed in astrocytes, microglial cells, and neurons. The total proteins of the midbrain tissue of mice in each experiment group were extracted, to determine the expression of phase II enzyme HO-1 in the midbrain of mice by western blot using GAPDH as the internal reference. The experiment included blank control group, MPTP model group, positive control group (caffeic acid phenethyl ester, CAPE), prototype control group (styryl sulfone compounds 3B, 3C, 3D, and 3G, whose structures are shown as above), and target compound group.

substantia nigra CD11b = assay: Number of substantia nigra microglial cells with CD11b positive expression in MPTP Parkinson's disease model mouse (immunohistochemistry); format: in vivo; details: for Positive cell number (microglial cells with CD11b positive expression): substantia nigra, MPTP Parkinson's disease model mouse, immunohistochemistry
Method: as §1
(§3) Neuron-glial cell network homeostasis disorder is an important factor for the selective and progressive death of substantia nigra dopaminergic neurons in PD. In the neurotoxic effect of MPTP, the excessive activations of microglial cells and astrocytes produce a variety of inflammatory cytokines and reactive oxygen species (ROS). These inflammatory factors and ROS amplify their respective toxicities and mediate malignant feedback loop, causing a cascade inflammation response and aggravating the pathological process of PD. CD11b and GFAP are the marker proteins for activations of microglial cells and astrocytes, respectively. Therefore, the effect of the target compounds on the activations of the microglial cells and astrocytes in the substantia nigra, hippocampus, and midbrain areas of MPTP-induced PD mice can be investigated, to explore the mechanism of the anti-PD effect of the target compounds by inhibiting the neuroinflammation.
as §2, with “nigra” for “nigra-striatum”, “CD11b immunohistochemical” for “double immunofluorescence”, “staining” for “staining for TH and phosphorylated p38”, “performed” for “performed to observe the coexpression of TH and phosphorylated p38,”, “number of microglial cells with CD11b positive” for “phosphorylated p38 protein”

hippocampus CD11b = assay: Number of hippocampus microglial cells with CD11b positive expression in MPTP Parkinson's disease model mouse (immunohistochemistry); format: in vivo; details: for Positive cell number (microglial cells with CD11b positive expression): hippocampus, MPTP Parkinson's disease model mouse, immunohistochemistry
Method: as §1, §3
as §2, with “hippocampus” for “substantia nigra-striatum”, “CD11b immunohistochemical” for “double immunofluorescence”, “staining” for “staining for TH and phosphorylated p38”, “performed” for “performed to observe the coexpression of TH and phosphorylated p38,”, “number of microglial cells with CD11b positive” for “phosphorylated p38 protein”

[1] = molecular target: acetylcholinesterase (AchE) (Homo sapiens, UniProt P22303); assay: biochemical
Sequence of acetylcholinesterase (AchE) (P22303 32-614, species assumed): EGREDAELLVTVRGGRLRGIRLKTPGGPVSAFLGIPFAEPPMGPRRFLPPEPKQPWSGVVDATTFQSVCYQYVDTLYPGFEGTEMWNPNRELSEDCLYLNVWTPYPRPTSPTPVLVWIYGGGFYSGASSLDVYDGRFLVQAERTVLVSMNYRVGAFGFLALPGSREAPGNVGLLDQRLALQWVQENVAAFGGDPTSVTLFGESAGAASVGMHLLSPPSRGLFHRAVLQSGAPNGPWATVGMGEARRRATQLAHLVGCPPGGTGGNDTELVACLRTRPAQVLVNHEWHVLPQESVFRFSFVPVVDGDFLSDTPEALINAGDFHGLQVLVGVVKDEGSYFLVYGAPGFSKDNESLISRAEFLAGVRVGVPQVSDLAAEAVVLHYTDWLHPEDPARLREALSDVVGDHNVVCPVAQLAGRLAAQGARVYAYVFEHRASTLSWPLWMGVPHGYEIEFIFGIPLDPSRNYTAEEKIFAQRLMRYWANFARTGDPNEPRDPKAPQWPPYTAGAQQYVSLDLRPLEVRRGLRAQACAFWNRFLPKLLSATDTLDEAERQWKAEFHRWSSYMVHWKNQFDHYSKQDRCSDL
Method: The modified Ellman method was used to determine the inhibitory activity on acetylcholinesterase. The principle lies in that acetylthiocholine iodide is decomposed under the action of acetylcholinesterase (AchE) to generate thiocholine. The thiocholine is quickly reacted with DTNB as the colour-developing agent to generate a yellow substance with light absorption at 405 nm. To a 96-well microplate, 50 μl of enzyme reaction buffer, 125 μl of DTNB (3 mM), 25 μl of test sample or positive control drug, and 25 μl of AchE (0.2 U/ml) were successively added. After incubation at room temperature for 5 min, 25 μl of ATCI (15 mM) was added. After incubation at room temperature for 8 min, the absorbance value was determined at 405 nm with a microplate reader. A blank control group without enzyme (25 μl PBS instead of the sample to be tested) was also established.

[2] = acetylcholinesterase, modified Ellman method, read-out: IC50

Structure (SMILES) | Expression (Immunofluorescence intensity %) (substantia nigra pp38) [%] | Expression (HO-1/GAPDH) (HO-1) | Positive cell number (microglial cells with CD11b positive expression) (substantia nigra CD11b) | Positive cell number (microglial cells with CD11b positive expression) (hippocampus CD11b) | IC50 [1, 2] [µM] | IC50 [1] [µM] | midbrain HO-1 expression compared with the styryl sulfone prototype compounds (HO-1) | number of substantia nigra microglial cells with CD11b positive expression compared with the styryl sulfone prototype compounds (substantia nigra CD11b) | number of hippocampus microglial cells with CD11b positive expression compared with the styryl sulfone prototype compounds (hippocampus CD11b)
O=S(=O)(/C=C/c1ccc(O)c(O)c1)Cc1ccc(C(F)(F)F)cc1 [Compound 3B, (E)-4-{2-[(4-trifluoromethylphenyl)mesyl]ethenyl}benzene-1,2-diol, reference compound] | 134.70 ± 31.07 | 0.56 ± 0.03 | 44 ± 5 | 16 ± 2 | > 100 |  |  |  | 
O=S(=O)(/C=C/c1ccc(O)c(O)c1)CCCc1ccccc1 [Compound 3C, (E)-4-{2-[(3-phenylpropyl)sulfonyl]ethenyl}benzene-1,2-diol, reference compound] | 138.79 ± 27.44 | 0.44 ± 0.05 | 70 ± 6 | 20 ± 3 | > 100 |  |  |  | 
O=S(=O)(/C=C/c1ccc(O)c(O)c1)Cc1ccc(Cl)cc1 [Compound 3D, (E)-4-{2-[(4-chlorophenyl)mesyl]ethenyl}benzene-1,2-diol, reference compound] | 114.68 ± 21.42 | 1.03 ± 0.20 | 39 ± 4 | 18 ± 3 | > 100 |  |  |  | 
CC(C)(C)c1ccc(CS(=O)(=O)/C=C/c2ccc(O)c(O)c2)cc1 [Compound 3G, (E)-4-{2-[(4-t-butylphenyl)mesyl]ethenyl}benzene-1,2-diol, reference compound] | 118.25 ± 10.60 | 0.51 ± 0.07 | 52 ± 5 | 18 ± 3 | > 100 |  |  |  | 
CC(C)N(c1ccc(CCS(=O)(=O)/C=C/c2ccc(OC(=O)N(C)c3ccc(I)cc3)c(OCCOCc3ccccc3)c2)cc1)C(C)C [Compound A1-3, (E)-2-(2-benzyloxyethoxy)-4-{2-[4-(N,N-diisopropylamino)phenylethylsulfonyl]ethenyl}phenyl-N-(4-iodophenyl)-N-methylcarbamate] | 58.19 ± 12.07 | 0.66 ± 0.05 | 38 ± 4 | 14 ± 2 |  | 25.2 ± 3.34 |  |  | 
CCN(CC)C(=O)Oc1ccc(/C=C/S(=O)(=O)Cc2ccc(C(F)(F)F)cc2)cc1OC(=O)N(CC)CC [Compound B1-1, (E)-4-{2-[(4-trifluoromethylphenyl)mesyl]ethenyl}-1,2-phenylenebis(diethylcarbamate)] | 76.35 ± 21.90 | 0.90 ± 0.10 | 32 ± 4 | 9 ± 2 | 13.3 ± 2.85 |  | significantly higher | significantly lower | significantly lower
CCN(CC)C(=O)Oc1ccc(/C=C/S(=O)(=O)CCCc2ccccc2)cc1OC(=O)N(CC)CC [Compound C1-1, (E)-4-[2-(3-phenylpropylsulfonyl)ethenyl]-1,2-phenylenebis(diethylcarbamate)] | 108.71 ± 12.51 | 0.88 ± 0.09 | 27 ± 4 | 7 ± 2 | 14.7 ± 3.51 |  | significantly higher | significantly lower | significantly lower
CCN(CC)C(=O)Oc1ccc(/C=C/S(=O)(=O)Cc2ccc(Cl)cc2)cc1OC(=O)N(CC)CC [Compound D1-1, (E)-4-{2-[(4-chlorophenyl)mesyl]ethenyl}-1,2-phenylenebis(diethylcarbamate)] | 57.50 ± 15.33 | 1.63 ± 0.12 | 15 ± 3 | 7 ± 1 | 4.16 ± 1.07 |  | significantly higher | significantly lower | significantly lower
CC(=O)Oc1ccc(/C=C/S(=O)(=O)Cc2c(F)c(F)c(F)c(F)c2F)cc1OC(=O)NC(=O)c1ccc([N+](=O)[O-])c(C)c1 [Compound D5-4, (E)-2-[N-(3-methyl-4-nitrobenzoyl)carbamoyloxy]-4-{2-[(perfluorophenyl)mesyl]ethenyl}phenyl acetate] | 103.25 ± 15.27 | 0.93 ± 0.10 | 41 ± 3 | 12 ± 2 | 20.8 ± 3.12 |  |  |  | 
